Measurements taken from patent US9980943B2, “Methods of treating muscular dystrophy” (BOARD OF REGENTS OF THE NEVADA SYSTEM OF HIGHER EDUCATION, …, priority 2013, dated 2018).

How the values were obtained:
Assay type in all cases: cell-based, mouse
[1] = system: α7 integrin (LacZ reporter in α7βgal+/− myoblasts); assay: Myoblast α7+/LacZ integrin FDG assay (Burkin assay in myoblasts, 96-well); conditions: α7+/LacZ myoblasts, 96-well
[2] = system: α7 integrin (LacZ reporter in α7+/LacZ myotubes); assay: Myotube α7 integrin FDG assay (Burkin assay in myotubes, 96-well); conditions: myotubes
[3] = system: β-galactosidase in CMV-LacZ C2C12 myoblasts; assay: CMV-LacZ secondary screen in C2C12 myoblasts (β-Gal stabilizing assay); conditions: CMV-LacZ C2C12 myoblasts
How it was run: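 β-gal stabilization was measured in C2C12 myoblasts or myotubes stably transfected with a CMV-driven LacZ construct, using the FDG β-gal assay. Compounds were tested in dose-response at 0.5, 1, 5, 10, 20 and 40 μM, with two replicates per point.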

[4] = system: β-galactosidase in CMV-LacZ C2C12 myotubes; assay: CMV-LacZ secondary screen in C2C12 myotubes (β-Gal stabilizing assay); conditions: C2C12 CMV-LacZ myotubes, fold relative to DMSO
How it was run: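 A secondary screen identifies compounds that stabilize β-gal independently of the native promoter, using CMV-LacZ C2C12 cells. Curves span 0.5–40 μM at six levels, in duplicate.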

| Structure (SMILES) | Burkin Assay in Myoblasts, signal relative to DMSO ([1]; 0.5 uM) | Burkin Assay in Myoblasts, signal relative to DMSO ([1]; 1 uM) | Burkin Assay in Myoblasts, signal relative to DMSO ([1]; 5 uM) | Burkin Assay in Myoblasts, signal relative to DMSO ([1]; 10 uM) | Burkin Assay in Myoblasts, signal relative to DMSO ([1]; 20 uM) | Burkin Assay in Myoblasts, signal relative to DMSO ([1]; 40 uM) | Burkin Assay in Myotubes, α7 integrin LacZ reporter signal relative to DMSO ([2]; 0.5 uM) | Burkin Assay in Myotubes, α7 integrin LacZ reporter signal relative to DMSO ([2]; 1 uM) | Burkin Assay in Myotubes, α7 integrin LacZ reporter signal relative to DMSO ([2]; 5 uM) | Burkin Assay in Myotubes, α7 integrin LacZ reporter signal relative to DMSO ([2]; 10 uM) | Burkin Assay in Myotubes, α7 integrin LacZ reporter signal relative to DMSO ([2]; 20 uM) | Burkin Assay in Myotubes, α7 integrin LacZ reporter signal relative to DMSO ([2]; 40 uM) | CMV-LACZ in Myoblasts (β-galactosidase activity relative to DMSO) ([3]; 0.5 uM) | CMV-LACZ in Myoblasts (β-galactosidase activity relative to DMSO) ([3]; 1 uM) | CMV-LACZ in Myoblasts (β-galactosidase activity relative to DMSO) ([3]; 5 uM) | CMV-LACZ in Myoblasts (β-galactosidase activity relative to DMSO) ([3]; 10 uM) | CMV-LACZ in Myoblasts (β-galactosidase activity relative to DMSO) ([3]; 20 uM) | CMV-LACZ in Myoblasts (β-galactosidase activity relative to DMSO) ([3]; 40 uM) | CMV-LACZ in Myotubes, signal relative to DMSO ([4]; 0.5 uM) | CMV-LACZ in Myotubes, signal relative to DMSO ([4]; 1 uM) | further results |
| --- | --- | --- | --- | --- | --- | --- | --- | --- | --- | --- | --- | --- | --- | --- | --- | --- | --- | --- | --- | --- | --- |
| Nc1cccc(/C=C/C(=O)O)c1 [MLS000777780-01] | 1.136 | 1.056 | 0.9439 | 1.248 | 0.9133 | 0.7231 | 1.047 | 0.9837 | 0.8697 | 0.9393 | 0.8814 | 0.7756 | 0.8779 | 0.9063 | 0.9893 | 1.0126 | 1.3393 | 0.9463 | 0.8914 | 0.8838 | CMV-LACZ in Myotubes, signal relative to DMSO ([4]; 5 uM): 1.0471; CMV-LACZ in Myotubes, signal relative to DMSO ([4]; 10 uM): 0.8808; CMV-LACZ in Myotubes, signal relative to DMSO ([4]; 20 uM): 0.9316; CMV-LACZ in Myotubes, signal relative to DMSO ([4]; 40 uM): 1.0474 |
| CCc1nc2ccccc2c(C(=O)NCc2ccccc2)c1C [MLS000688267-01] | 1.092 | 1.104 | 1.358 | 0.9133 | 1.0466 | 1.107 | 0.9011 | 0.8373 | 1.132 | 1.101 | 0.8808 | 1.131 | 1.0950 | 1.1579 | 0.9129 | 0.8935 | 1.1407 | 1.0774 | 0.8648 | 1.1333 | CMV-LACZ in Myotubes, signal relative to DMSO ([4]; 5 uM): 0.9634; CMV-LACZ in Myotubes, signal relative to DMSO ([4]; 10 uM): 1.2248; CMV-LACZ in Myotubes, signal relative to DMSO ([4]; 20 uM): 0.9505; CMV-LACZ in Myotubes, signal relative to DMSO ([4]; 40 uM): 1.1505 |
| COc1ccc(Cl)cc1NC(=O)c1cc(-c2cc(C)ccc2O)n[nH]1 [MLS000779126-01] | 1.019 | 1.115 | 0.9229 | 0.8196 | 0.9124 | 0.9389 | 0.9836 | 1.018 | 0.9146 | 0.8758 | 0.8832 | 0.7768 | 0.9751 | 0.9994 | 0.9637 | 0.7610 | 0.9944 | 0.7441 | 0.9495 | 1.2162 | CMV-LACZ in Myotubes, signal relative to DMSO ([4]; 5 uM): 1.0257; CMV-LACZ in Myotubes, signal relative to DMSO ([4]; 10 uM): 1.0467; CMV-LACZ in Myotubes, signal relative to DMSO ([4]; 20 uM): 0.9988; CMV-LACZ in Myotubes, signal relative to DMSO ([4]; 40 uM): 1.1671 |
| CC1(C)Cc2c(c(N3CCOCC3)nc3sc(C(=O)Nc4ccccc4)c(N)c23)CO1 [MLS001075922-01] | 1.2085 | 1.292 | 0.6039 | 0.2869 | 0.5678 | 0.6464 | 1.292 | 1.143 | 0.6556 | 0.629 | 1.067 | 0.8243 | 0.9434 | 1.3028 | 1.6332 | 1.2361 | 0.9881 | 1.3037 | 1.0222 | 1.0533 | CMV-LACZ in Myotubes, signal relative to DMSO ([4]; 5 uM): 1.2947; CMV-LACZ in Myotubes, signal relative to DMSO ([4]; 10 uM): 1.2173; CMV-LACZ in Myotubes, signal relative to DMSO ([4]; 20 uM): 1.0282; CMV-LACZ in Myotubes, signal relative to DMSO ([4]; 40 uM): 0.8388 |
| CC(C)(C)c1csc(NC(=O)c2cccnc2)n1 [MLS001164432-01] | 1.248 | 1.1813 | 1.091 | 1.067 | 0.7137 | 0.6622 | 0.8982 | 0.9509 | 0.9878 | 0.9985 | 0.7121 | 0.8464 | 0.9600 | 0.7842 | 1.1387 | 1.3183 | 1.1059 | 1.1289 | 0.9248 | 1.3543 | CMV-LACZ in Myotubes, signal relative to DMSO ([4]; 5 uM): 0.9500; CMV-LACZ in Myotubes, signal relative to DMSO ([4]; 10 uM): 1.2418; CMV-LACZ in Myotubes, signal relative to DMSO ([4]; 20 uM): 1.1358; CMV-LACZ in Myotubes, signal relative to DMSO ([4]; 40 uM): 1.1179 |
